In a melting point compilation (Tetko et al.; mined from patent text by program, amines drawn as free bases though some values may be those of a salt) one finds melting point data, which are given here for 35 molecules.

A word on the melting point: it is the temperature, or range, at which the solid turns liquid. The molecule `CC(C)(CO)COc1c(-c2ccc(S(C)(=O)=O)cc2)cnn(-c2ccc(F)c(F)c2)c1=O` returned a melting point of 161 to 162 °C.
The molecule `CCOC(=O)c1cc(C#N)c(C)nc1O` had a melting point of 212 to 213 °C.
The figure for `CC1C=CC(=O)OC1=O` (stereo not given) is 70 to 72 °C; for `CCOC(=O)c1c(S(=O)(=O)Cl)nn2c(C)cc(C)nc12` it is 128 to 130 °C.
The result for `COc1cccc(C(=O)c2c(N)sc3c2CCN(Cc2ccccc2)C3)c1OC` reads 172 to 173 °C; that for `COc1cc(NC(=O)N(Cc2ccccc2)C2CCCCC2)c(OC(C)=O)c(C(C)(C)C)c1`, 129 to 132 °C.
Regarding `O=C(CC1CCN(CC2CC2)CC1)c1ccc(O)cc1`, the melting point was in the range of 209 to 211 °C.
The result for `CCN(CC)c1cccc(CCC(N)=O)c1` reads 59 °C; that for `Nc1noc2cc3c(cc12)C1(CO3)C(=O)N(CC2CCCO2)c2ccccc21` (stereo not given), 116 to 119 °C; that for `CCOC(=O)C(=O)Nc1cccc(OC)c1C(N)=O`, 170 to 173 °C.
Regarding `CNC(=O)C=Cc1ccc(C(=O)O)cc1`, the melting point fell in the range of 270 to 273 °C.
The result for `CC(=O)NC[C@H]1CN(c2ccc(N3CCC4(CC3)OCCO4)cc2)C(=O)O1` reads 140 to 142 °C.
The molecule `CC(=O)N1CCN(C(=S)Nc2cc3sc(C(C)(C)C)nc3cc2N2CCC(C)CC2)CC1` registered a melting point of 187 to 190 °C.
The result for `CCN(CCOC)C(=O)c1cc(-c2ccccc2)c(=O)n2c1-c1cc(Cl)ccc1CN2` reads 184 to 185 °C.
The result for `CCOC(=O)c1cc2cccc(NC(=O)c3cc(OCc4ccccc4F)cc(OCc4ccccc4F)c3)c2[nH]1` reads 157 to 158 °C; that for `CCc1cc2c(c(CC)n1)CCC(=O)N2`, 90 to 94 °C; that for `O=C(CN1CCC(Cc2ccccc2)CC1)Nc1ccc2c(c1)NC(=O)CO2`, 220 to 222 °C.
`Cc1cc(C23CC4CC(CC(C4)C2)C3)ccc1NS(=O)(=O)c1cc([N+](=O)[O-])ccc1Cl` came in with a melting point of 238 °C.
`CC(=O)SCC(=Cc1ccc(Oc2ccccc2)cc1)C(=O)NCCC(=O)OCc1ccccc1` came in with a melting point of 79 °C.
`COC(=O)CN(CC(=O)OC)c1cc(OCCCCCCCCCCCCOc2ccccc2)cc(OCCCOc2ccc(S(C)=O)cc2)c1` (stereo not given) yielded a melting point of 47 to 49 °C.
`COc1ccc(S(N)(=O)=O)cc1C(=O)C(C)Br` (stereo not given) had a melting point of 108 to 110 °C.
The result for `N#CC1CCn2cccc21` (stereo not given) reads 44 to 45 °C; that for `CC1(C)CS(=O)(=O)CC(C)(C)c2[nH]c(-c3ccccc3)nc21`, 260 to 263 °C; that for `C/C(=C\c1ccc(C(=O)OCCO)cc1)c1ccc2c(c1)C(C)(C)CCC2(C)C`, 138 to 139 °C.
The figure for `NCCc1c[nH]c2ccc(-c3ccc(F)cc3)cc12` is above 250 °C.
As for `COC(=O)C1=C(C)NN=C(c2ccccc2)C1c1ccccc1Cl` (stereo not given), the melting point was determined as 198 °C.
As to `COc1ccc(CNC(=O)Nc2ccc(CN3C(=O)[C@H]4CCC[C@H]4N(C(=O)CCl)c4ccccc43)cc2)cc1` (relative stereo), the melting point is 225 to 226 °C.
The figure for `CC(C)(C)OC(=O)N1CCC(c2ccc(Nc3nc4c(-c5ccc(F)cc5)cccn4n3)cc2)CC1` is 88 to 91 °C.
The result for `COc1ccc(C(=O)C2Cc3cc(OC)ccc3C2=O)cc1` (stereo not given) reads 160 to 162 °C; that for `CCCCCc1c(C(O)CC)nc(C(C)C)c(CO)c1-c1ccc(F)cc1` (stereo not given), 89 to 90 °C.
The result for `Clc1nc(-c2ccccc2)cc2ccccc12` reads 75 to 77 °C.
The molecule `COC(=O)COc1ccc(NC(=O)CCc2ccc(C#N)cc2)cc1` returned a melting point of 141 °C.
As to `CC(=O)OCCOc1ncc(Cl)c(N)c1Cl`, the melting point fell in the range of 76 to 77 °C.
On to `COc1ccc(-c2nc(-c3ccn4c3CCC4)[nH]c2-c2ccc(OC)cc2)cc1`, for which the melting point stood at 238 °C.
The figure for `Cc1nc2cc3c(cc2s1)C1(CO3)C(=O)N(CC2CCOCC2)c2ccccc21` (stereo not given) is 186 to 187 °C.
